Results taken from patent publication US8269026B2, “Lupane derivatives useful for treating HIV” (priority 2008, dated 2012).

The compounds below were run on HIV-1 (HIVIIIB) replication in MT2 cell line (assay: HIV-1 replication in MT2 cell line with and without 30% human serum (viral RT activity in supernatant)). Conditions: Human immunodeficiency virus 1, MT2 cells, with 30% human serum, average IC50 if tested more than once, read-out: MT2 (HIVIIIB) with HS 30% IC50 range.
Type: cell-based
In short: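 Read-out is supernatant reverse transcriptase activity on day 5 post-infection, giving IC50 and IC90. Compounds were titrated in complete medium ± 30% human serum, re-dosed after 3 days, on MT2 cells exposed for 3 h to HIVIIIB at MOI 0.5 then washed.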

**Q.** With `CCc1nnc(C(=O)N[C@@]23CC[C@]4(C)C(CCC5[C@@]6(C)CC[C@H](OC(=O)CC(C)(C)C(=O)O)C(C)(C)C6CC[C@]54C)C2=C(C(C)C)C(=O)C3)o1` (stereo partly drawn) [19-79, 3β-O-(3′,3′-Dimethylsuccinyl)-17β-(5-ethyl-[1,3,4]-oxadiazole-2-amido)-21-oxolup-18-ene] as the compound, how does the IC50 read?
**A.** Its IC50 is less than 199 nM.

**Q.** How did the IC50 turn out when `CC(C)C1=C2C3CCC4[C@@]5(C)CC[C@H](OC(=O)CC(C)(C)C(=O)O)C(C)(C)C5CC[C@@]4(C)[C@]3(C)CC[C@@]2(NC(=O)NC(C)(C)C2CCCCC2)CC1=O` (stereo partly drawn) [17-70, 3β-O-(3′,3′-Dimethylsuccinyl)-17β-[N′-(1-methyl-1-cyclohexyl-ethyl)-ureido]-21-oxolup-18-ene] was run?
**A.** Its IC50 is greater than 1000 nM.

**Q.** With `CNC1CCN(C(=O)N[C@@]23CC[C@]4(C)C(CCC5[C@@]6(C)CC[C@H](OC(=O)CC(C)(C)C(=O)O)C(C)(C)C6CC[C@]54C)C2=C(C(C)C)C(=O)C3)CC1` (stereo partly drawn) [17-39, 3β-O-(3′,3′-Dimethylsuccinyl)-17β-[(4-methylamino-piperidine-1-carbonyl)-amino]-21-oxolup-18-ene] as the compound, how does the IC50 read?
**A.** Its IC50 is 200 to 999 nM.

**Q.** Which IC50 does the source give for `CC(C)C1=C2[C@H]3CC[C@@H]4[C@@]5(C)CC[C@H](OC(=O)CC(C)(C)C(=O)O)C(C)(C)[C@@H]5CC[C@@]4(C)[C@]3(C)CC[C@@]2(NC(=O)NCc2nccn2C)CC1=O` [17-73, 3β-O-(3′,3′-Dimethylsuccinyl)-17β-[N′-(1-methyl-1H-imidazol-2-yl-methyl)-ureido]-21-oxolup-18-ene] here?
**A.** The IC50 was less than 199 nM.

**Q.** Which IC50 does the source give for `CC(C)C1=C2[C@H]3CC[C@@H]4[C@@]5(C)CC[C@H](OC(=O)CC(C)(C)C(=O)O)C(C)(C)[C@@H]5CC[C@@]4(C)[C@]3(C)CC[C@@]2(NC(=O)c2cccnc2O)CC1=O` [19-51, 3β-O-(3′,3′-Dimethylsuccinyl)-17β-(2-hydroxypyridin-3-yl)amido-21-oxolup-18-ene] here?
**A.** The IC50 was less than 199 nM.

**Q.** With `CC(C)C1=C2C3CCC4[C@@]5(C)CC[C@H](OC(=O)CC(C)(C)C(=O)O)C(C)(C)C5CC[C@@]4(C)[C@]3(C)CC[C@@]2(NC(=O)c2nnc(-c3ccccc3)o2)CC1=O` (stereo partly drawn) [19-63, 3β-O-(3′,3′-Dimethylsuccinyl)-17β-(5-phenyl-[1,3,4]oxadiazole-2-amido)-21-oxolup-18-ene] as the compound, how does the IC50 read?
**A.** The IC50 was less than 199 nM.

**Q.** Which IC50 does the source give for `COC(=O)N[C@@]12CC[C@]3(C)[C@H](CC[C@@H]4[C@@]5(C)CC[C@H](OC(=O)CC(C)(C)C(=O)O)C(C)(C)[C@@H]5CC[C@]43C)C1=C(C(C)C)C(=O)C2` [20-1, 3β-O-(3′,3′-Dimethylsuccinyl)-17β-nnethoxycarbonylamino-21-oxolup-18-ene] here?
**A.** The IC50 was less than 199 nM.

**Q.** Which IC50 does the source give for `CC(C)C1=C2C3CCC4[C@@]5(C)CC[C@H](OC(=O)CC(C)(C)C(=O)O)C(C)(C)C5CC[C@@]4(C)[C@]3(C)CC[C@@]2(NC(=O)N[C@H](C)c2ccccc2)CC1=O` (stereo partly drawn) [17-62, 3β-O-(3′,3′-Dimethylsuccinyl)-17β-[N′-((R)-1-phenyl-ethyl)-ureido]-21-oxolup-18-ene] here?
**A.** The IC50 was less than 199 nM.

**Q.** For `CC(C)C1=C2[C@H]3CC[C@@H]4[C@@]5(C)CC[C@H](OC(=O)CC(C)(C)C(=O)O)C(C)(C)[C@@H]5CC[C@@]4(C)[C@]3(C)CC[C@@]2(NC(=O)c2ccncc2)CC1=O` [19-14, 3β-O-(3′,3′-Dimethylsuccinyl)-17β-(pyridin4-yl)amido-21-oxolup-18-ene], which IC50 is on record?
**A.** The IC50 was less than 199 nM.

**Q.** Which IC50 does the source give for `CC(C)C1=C2C3CCC4[C@@]5(C)CC[C@H](OC(=O)CC(C)(C)C(=O)O)C(C)(C)C5CC[C@@]4(C)[C@]3(C)CC[C@@]2(NC(=O)OC2CCN(C)CC2)CC1=O` (stereo partly drawn) [20-17, 3β-O-(3′,3′-Dimethylsuccinyl)-17β-(1-methylpiperidine-4-oxycarbonylamino)-21-oxolup-18-ene] here?
**A.** The IC50 was less than 199 nM.

**Q.** How did the IC50 turn out when `CC(C)C1=C2C3CCC4[C@@]5(C)CC[C@H](OC(=O)CC(C)(C)C(=O)O)C(C)(C)C5CC[C@@]4(C)[C@]3(C)CC[C@@]2(NC(=O)c2ncccn2)CC1=O` (stereo partly drawn) [19-22, 3β-O-(3′,3′-Dimethylsuccinyl)-17β-(pyrimidine-2-amido)-21-oxolup-18-ene] was run?
**A.** The IC50 was less than 199 nM.

**Q.** For `Cc1nc(C(=O)N[C@@]23CC[C@]4(C)C(CCC5[C@@]6(C)CC[C@H](OC(=O)CC(C)(C)C(=O)O)C(C)(C)C6CC[C@]54C)C2=C(C(C)C)C(=O)C3)no1` (stereo partly drawn) [19-68, 3β-O-(3′,3′-Dimethylsuccinyl)-17β-(5-methyl-[1,2,4]oxadiazole-3-amido)-21-oxolup-18-ene], which IC50 is on record?
**A.** Its IC50 is less than 199 nM.

**Q.** For `CC(C)C1=C2C3CCC4[C@@]5(C)CC[C@H](OC(=O)CC(C)(C)C(=O)O)C(C)(C)C5CC[C@@]4(C)[C@]3(C)CC[C@@]2(NC(=O)c2cncs2)CC1=O` (stereo partly drawn) [19-28, 3β-O-(3′,3′-Dimethylsuccinyl)-17β-(1,3-thiazole-5-amido)-21-oxolup-18-ene], which IC50 is on record?
**A.** The IC50 was less than 199 nM.

**Q.** `CC(C)C1=C2C3CCC4[C@@]5(C)CC[C@H](OC(=O)CC(C)(C)C(=O)O)C(C)(C)C5CC[C@@]4(C)[C@]3(C)CC[C@@]2(NC(=O)NCc2ncccn2)CC1=O` (stereo partly drawn) [17-67, 3β-O-(3′,3′-Dimethylsuccinyl)-17β-[N′-(pyrimidin-2-ylmethyl)ureido]-21-oxolup-18-ene] was tested. Which IC50 did it give?
**A.** The IC50 was less than 199 nM.

**Q.** For `CC(C)C1=C2C3CCC4[C@@]5(C)CC[C@H](OC(=O)CC(C)(C)C(=O)O)C(C)(C)C5CC[C@@]4(C)[C@]3(C)CC[C@@]2(NC(=O)C2CCCCC2)CC1=O` (stereo partly drawn) [19-33, 3β-O-(3′,3′-Dimethylsuccinyl)-17β-cyclohexylamido-21-oxolup-18-ene], which IC50 is on record?
**A.** Its IC50 is less than 199 nM.

**Q.** Which IC50 does the source give for `Cc1ccc(C(=O)N[C@@]23CC[C@]4(C)[C@H](CC[C@@H]5[C@@]6(C)CC[C@H](OC(=O)CC(C)(C)C(=O)O)C(C)(C)[C@@H]6CC[C@]54C)C2=C(C(C)C)C(=O)C3)cn1` [19-48, 3β-O-(3′,3′-Dimethylsuccinyl)-17β-(6-methylpyridin-3-yl)amido-21-oxolup-18-ene] here?
**A.** Its IC50 is less than 199 nM.

**Q.** Which IC50 does the source give for `CC(C)C1=C2[C@H]3CC[C@@H]4[C@@]5(C)CC[C@H](OC(=O)CC(C)(C)C(=O)O)C(C)(C)[C@@H]5CC[C@@]4(C)[C@]3(C)CC[C@@]2(NC(=O)Cc2ccc(F)cc2)CC1=O` [19-9, 3β-O-(3′,3′-Dimethylsuccinyl)-17β-(4-fluorobenzyl)amido-21-oxolup-18-ene] here?
**A.** The IC50 was less than 199 nM.

**Q.** With `Cc1ncccc1C(=O)N[C@@]12CC[C@]3(C)[C@H](CC[C@@H]4[C@@]5(C)CC[C@H](OC(=O)CC(C)(C)C(=O)O)C(C)(C)[C@@H]5CC[C@]43C)C1=C(C(C)C)C(=O)C2` [19-46, 3β-O-(3′,3′-Dimethylsuccinyl)-17β-(2-methylpyridin-3-yl)amido-21-oxolup-18-ene] as the compound, how does the IC50 read?
**A.** The IC50 was less than 199 nM.

**Q.** With `Cc1nnc(C(=O)N(C)[C@@]23CC[C@]4(C)[C@H](CC[C@@H]5[C@@]6(C)CC[C@H](OC(=O)CC(C)(C)C(=O)O)C(C)(C)[C@@H]6CC[C@]54C)C2=C(C(C)C)C(=O)C3)o1` [19-69, 3β-O-(3′,3′-Dimethylsuccinyl)-17β-[methyl-(5-methyl-[1,3,4]oxadiazole-2-carbonyl)-amino]-21-oxolup-18-ene] as the compound, how does the IC50 read?
**A.** The IC50 was less than 199 nM.

**Q.** Which IC50 does the source give for `CC(C)C1=C2[C@H]3CC[C@@H]4[C@@]5(C)CC[C@H](OC(=O)CC(C)(C)C(=O)O)C(C)(C)[C@@H]5CC[C@@]4(C)[C@]3(C)CC[C@@]2(NC(=O)CCN2CCCC2)CC1=O` [19-37, 3β-O-(3′,3′-Dimethylsuccinyl)-17β-(3-pyrrolidin-1-yl-propionamido)-21-oxolup-18-ene] here?
**A.** The IC50 was less than 199 nM.

Same assay, conditions: Human immunodeficiency virus 1, MT2 cells, without human serum, average IC50 if tested more than once, read-out: MT2 (HIVIIIB) IC50 range

**Q.** `COC(=O)N[C@@]12CC[C@]3(C)[C@H](CC[C@@H]4[C@@]5(C)CC[C@H](OC(=O)CC(C)(C)C(=O)O)C(C)(C)[C@@H]5CC[C@]43C)C1=C(C(C)C)C(=O)C2` [20-1, 3β-O-(3′,3′-Dimethylsuccinyl)-17β-nnethoxycarbonylamino-21-oxolup-18-ene] was tested. Which IC50 did it give?
**A.** Its IC50 is less than 199 nM.

**Q.** `CC(C)C1=C2C3CCC4[C@@]5(C)CC[C@H](OC(=O)CC(C)(C)C(=O)O)C(C)(C)C5CC[C@@]4(C)[C@]3(C)CC[C@@]2(NC(=O)C2CCCCC2)CC1=O` (stereo partly drawn) [19-33, 3β-O-(3′,3′-Dimethylsuccinyl)-17β-cyclohexylamido-21-oxolup-18-ene] was tested. Which IC50 did it give?
**A.** Its IC50 is less than 199 nM.

**Q.** With `CC(C)C1=C2[C@H]3CC[C@@H]4[C@@]5(C)CC[C@H](OC(=O)CC(C)(C)C(=O)O)C(C)(C)[C@@H]5CC[C@@]4(C)[C@]3(C)CC[C@@]2(NC(=O)Cc2ccc(F)cc2)CC1=O` [19-9, 3β-O-(3′,3′-Dimethylsuccinyl)-17β-(4-fluorobenzyl)amido-21-oxolup-18-ene] as the compound, how does the IC50 read?
**A.** The IC50 was less than 199 nM.
